The record followed here is ChEMBL document CHEMBL1201862, “PubChem BioAssay data set” (2004).

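Where inhibition never reached the appropriate level, the endpoint shown equals the highest concentration tested. Otherwise, values were interpolated linearly from a five-concentration, 48-hour dose response in 96-well plates. GI50 marks 50% less growth.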 Activity calls are given as the source filed them. Rule as the data show it: active = GI50 up to about 1.1 µM and inactive = higher.

Test systems include SK-MEL-28; Hs-578T; HCC 2998; HT-29; PC-3; KM12; ACHN; M14; UACC-257; SK-OV-3; CAKI-1; NCI/ADR-RES; NCI-H23; MDA-MB-231; Malme-3M; OVCAR-5; SF-539; HCT-15; SNB-19; RPMI-8226.
Holding throughout (experiment): growth of human tumour cells (NCI), 48 h

Take `O=C(NNC(=S)Nc1ccccc1)c1ccccc1Nc1ccccc1C(=O)NNC(=S)Nc1ccccc1`: the GI50 is 33 µM (inactive) in the test with SK-MEL-28; 13.1 µM (inactive) with Hs-578T; 16.9 µM (inactive) in the test with HCC 2998; 28.5 µM (inactive) in the test on HT-29; 23 µM (inactive) with PC-3; 42 µM (inactive) in the test with KM12. In addition, the GI50 was 31.2 µM (inactive) in the test on ACHN; 19 µM (inactive) in the test on M14; 19.1 µM (inactive) in the test with UACC-257; 30.1 µM (inactive) in the test on SK-OV-3; 48.2 µM (inactive) in the test on CAKI-1; 87.3 µM (inactive) in the test with NCI/ADR-RES. Also, the GI50 in the test on NCI-H23 was 18.9 µM (inactive); with MDA-MB-231 it was 21.7 µM (inactive); with Malme-3M, 19.8 µM (inactive); in the test with OVCAR-5, 16.8 µM (inactive); with SF-539, 24.1 µM (inactive); in the test with HCT-15, 29.5 µM. Further, the GI50 in the test on SNB-19 was 17.7 µM (inactive); in the test with RPMI-8226 it was 18.6 µM (inactive).
For the molecule `COCCN(CCNC(=O)c1cccc2c(N)c3cccc(C)c3nc12)CCOC`, the GI50 in the test with SK-MEL-28 is 7.35 µM (inactive); in the test with Hs-578T, 1.87 µM (inactive); in the test with HCC 2998, 0.294 µM (active); in the test on HT-29, 0.558 µM (active); in the test on PC-3, 1 µM (active); with KM12, 0.83 µM (active). Besides, the GI50 in the test on ACHN was 0.681 µM (active); with M14, 1.37 µM (inactive); in the test with UACC-257, 4.63 µM (inactive); in the test with SK-OV-3, 5.16 µM (inactive); with CAKI-1, 0.528 µM (active); in the test on NCI/ADR-RES, 4.4 µM (inactive). The GI50 in the test with NCI-H23 was 0.78 µM (active); with MDA-MB-231, 0.24 µM (active); in the test with Malme-3M it was 0.695 µM (active); in the test with OVCAR-5 it was 2.2 µM (inactive); in the test with SF-539, 0.931 µM (active); in the test with HCT-15 it was 1.82 µM. The values for the GI50 in the test on SNB-19 and with RPMI-8226 were 2.48 µM (inactive) and 1.12 µM (active), respectively.
Regarding `COc1ccc(C(=O)c2cc(OC)c(OC)c(OC)c2)cc1`, the GI50 with SK-MEL-28 is 0.733 µM (active); in the test on Hs-578T, 0.111 µM (active); in the test with HCC 2998, 0.321 µM (active); in the test with HT-29, 0.0372 µM (active); in the test with PC-3, 0.0775 µM (active); in the test on KM12, 0.0481 µM (active). In addition, the GI50 with ACHN is 1.29 µM (inactive); in the test on M14, 0.0753 µM (active); with UACC-257, 0.769 µM (active); in the test with SK-OV-3, 1.14 µM (inactive); in the test on CAKI-1, 0.0738 µM (active); in the test with NCI/ADR-RES, 0.054 µM (active). Moreover, the GI50 in the test on NCI-H23 was 0.324 µM (active); with MDA-MB-231, 0.0881 µM (active); in the test with Malme-3M, 0.0586 µM (active); in the test on OVCAR-5, 5.98 µM (inactive); in the test with SF-539, 0.152 µM (active); in the test with HCT-15 it was 0.0566 µM. For the same molecule, the GI50 is 0.199 µM (active) with SNB-19 and 0.169 µM (active) in the test with RPMI-8226.
`Clc1ccc(COC(Cn2ccnc2)c2ccc(Cl)cc2Cl)cc1` (stereo not given) [ECONAZOLE NITRATE]: the GI50 was 14.8 µM (inactive) with SK-MEL-28; 17.1 µM (inactive) in the test with Hs-578T; 15.6 µM (inactive) in the test with HCC 2998; 8.49 µM (inactive) in the test with HT-29; 9.16 µM (inactive) with PC-3; 12.1 µM (inactive) in the test with KM12. The GI50 was 12.8 µM (inactive) in the test on ACHN; 13 µM (inactive) in the test with M14; 10.4 µM (inactive) with UACC-257; 19.7 µM (inactive) with SK-OV-3; 7.31 µM (inactive) in the test with CAKI-1; 5.42 µM (inactive) in the test on NCI/ADR-RES. Moreover, the GI50 in the test on NCI-H23 was 13.2 µM (inactive); in the test on MDA-MB-231 it was 12.4 µM (inactive); in the test on Malme-3M, 16.4 µM (inactive); with OVCAR-5, 14.5 µM (inactive); with SF-539 it was 13.6 µM (inactive); with HCT-15, 12.8 µM. Moreover, the GI50 was 14.9 µM (inactive) with SNB-19 and 4.22 µM (inactive) in the test with RPMI-8226.
Turning to `COc1ccc(C(=O)O[C@H]2CC[C@@]3(C)[C@@H]4CC[C@H]5[C@]6(O)C[C@H](O)[C@@]7(O)[C@@H](CN8C[C@@H](C)CC[C@H]8[C@@]7(C)O)[C@]6(O)C[C@@]53OC24O)cc1OC` [VERATRIDINE], the GI50 was > 100 µM (inactive) with SK-MEL-28; > 100 µM (inactive) with Hs-578T; 46.1 µM (inactive) with HCC 2998; 60.1 µM (inactive) with HT-29; > 100 µM (inactive) with PC-3; > 100 µM (inactive) with KM12. In addition, the GI50 in the test on ACHN was > 100 µM (inactive); in the test with M14, > 100 µM (inactive); in the test with UACC-257, 71.3 µM (inactive); in the test with SK-OV-3, > 100 µM (inactive); in the test with CAKI-1, > 100 µM (inactive); in the test with NCI/ADR-RES it was > 100 µM (inactive). In addition, the GI50 was > 100 µM (inactive) in the test on NCI-H23; > 100 µM (inactive) with MDA-MB-231; > 100 µM (inactive) in the test with Malme-3M; > 100 µM (inactive) in the test with OVCAR-5; 82 µM (inactive) in the test on SF-539; more than 100 µM in the test on HCT-15. In addition, the values for the GI50 with SNB-19 and in the test on RPMI-8226 were > 100 µM (inactive) and 80.4 µM (inactive), respectively.
